Test results taken from patent US20150051270A1, “Novel Cyclic Phenoxy Compounds and Improved Treatments for Cardiac and Cardiovascular Disease” (University of Nottingham, priority 2012, published 2015).

Key:
human beta1-adrenoceptor = target: T1, human beta1-adrenoceptor (Homo sapiens, UniProt P08588); test: 3H-CGP 12177 whole cell binding, beta1; conditions: 3H-CGP12177 whole-cell binding, CHO cells expressing human beta1-adrenoceptor, given as negative Log KD; for Kd: read-out: Beta 1 Log KD (converted)
T1 construct: expressed in transfected cells; host or cells: CHO cells
T1 sequence (P08588 whole entry): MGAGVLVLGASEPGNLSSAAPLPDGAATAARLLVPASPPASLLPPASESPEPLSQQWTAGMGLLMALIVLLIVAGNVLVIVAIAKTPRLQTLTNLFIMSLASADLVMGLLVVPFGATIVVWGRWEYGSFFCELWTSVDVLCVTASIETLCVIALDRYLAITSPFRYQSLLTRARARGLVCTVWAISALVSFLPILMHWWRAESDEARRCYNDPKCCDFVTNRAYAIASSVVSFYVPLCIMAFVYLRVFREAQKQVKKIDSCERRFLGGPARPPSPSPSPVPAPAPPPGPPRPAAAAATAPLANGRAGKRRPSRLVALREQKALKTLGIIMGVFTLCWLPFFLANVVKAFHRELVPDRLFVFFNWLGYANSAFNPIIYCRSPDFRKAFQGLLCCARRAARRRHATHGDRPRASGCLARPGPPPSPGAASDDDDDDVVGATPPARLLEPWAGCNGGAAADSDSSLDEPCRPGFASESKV
Procedure: (§1) Selectivity of ligands for the three beta-adrenoceptors was assessed by whole-cell binding studies using ^3H-CGP12177 in CHO cells expressing the human beta1, beta2 or beta3-adrenoceptors respectively essentially as described by Baker (2005; Br. J Pharmacol: 144, 317-22). Values shown are KD values determined as described by Baker (2005). KD represents the concentration of compound required to occupy 50% of the receptors in cells or tissues.
(§2) The selectivity of a ligand is given by the ratio of beta-1 to beta-2 KD. Accordingly a difference of one in the logarithmic values thereof represents a 10-fold selectivity, a difference of 2 represents 100-fold selectivity and a difference of 3 represents 1000-fold selectivity etc.

human beta2-adrenoceptor = target: T2, human beta2-adrenoceptor (Homo sapiens, UniProt P07550); test: 3H-CGP 12177 whole cell binding, beta2; conditions: 3H-CGP12177 whole-cell binding, CHO cells expressing human beta2-adrenoceptor, given as negative Log KD; for Kd: read-out: Beta 2 Log KD (converted)
T2 construct: expressed in transfected cells; host or cells: CHO cells
Procedure: as §1, §2

Molecule | Beta 1 Log KD (human beta1-adrenoceptor) | Beta 2 Log KD (human beta2-adrenoceptor) | Kd (human beta1-adrenoceptor) [nM] | Kd (human beta2-adrenoceptor) [nM] | melting point [°C]
1-(2-(2-Hydroxy-3-(2-methylbenzofuran-5-yloxy)propylamino)ethyl)-3-(4-hydroxyphenyl)urea [Example 610c] | −6.55 | −5.16 |  |  | 
1-(2-(3-(3-(Ethoxymethyl)-2,3-dihydrobenzo[b][1,4]dioxin-6-yloxy)-2-hydroxypropylamino)ethyl)-3-(4-hydroxyphenyl)urea and 1-(2-(3-(2-(ethoxymethyl)-2,3-dihydrobenzo[b][1,4]dioxin-6-yloxyl-2-hydroxypropylamino)ethyl)-3-(4-hydroxyphenyl)urea [Example 76] | −6.84 | −4.69 |  |  | 
O=C(NCCNCC(O)C1COc2ccccc2O1)Nc1ccc(O)cc1 (mixture of isomers) [Example 46b, 1-(2-(2-(2,3-dihydrobenzo[b][1,4]dioxin-2-yl)-2-hydroxyethylamino)ethyl)-3-(4-hydroxyphenyl)urea] |  |  | 11 | 97.7 | 141
O=C(NCCNCC(O)COc1ccc2c(c1)OC(c1ccccc1)CC2=O)Nc1cccc(Cl)c1 (stereo not shown) [Example 4a, 1-(3-chlorophenyl)-3-(2-(2-hydroxy-3-(4-oxo-2-phenylchroman-7-yloxy)propylamino)ethyl)urea] |  |  | 407 | 3090 | 
O=C(NCCNCC(O)COc1ccc2oc(-c3ccccc3)cc(=O)c2c1)Nc1cccc(Cl)c1 (stereo not shown) [Example 4b, 1-(3-chlorophenyl)-3-(2-(2-hydroxy-3-(4-oxo-2-phenyl-4H-chromen-6-yloxy)propylamino)ethyl)urea] |  |  | 617 | 4470 | 165
O=C(NCCNCC(O)COc1ccc2oc(=O)ccc2c1)Nc1cccc(Cl)c1 (stereo not shown) [Example 4c, 1-(3-chlorophenyl)-3-(2-(2-hydroxy-3-(2-oxo-2H-chromen-6-yloxy)propylamino)ethyl)urea] |  |  | 355 | 9330 | 160
Cc1cc(=O)oc2ccc(OCC(O)CNCCNC(=O)Nc3cccc(Cl)c3)cc12 (stereo not shown) [Example 4d, 1-(3-chlorophenyl)-3-(2-(2-hydroxy-3-(4-methyl-2-oxo-2H-chromen-6-yloxy)propylamino)ethyl)urea] |  |  | 389 | 4470 | 158
CCOC(=O)c1cc2cc(OCC(O)CNCCNC(=O)Nc3cccc(Cl)c3)ccc2o1 (stereo not shown) [Example 24a, Ethyl-5-(3-(2-(3-(3-Chlorophenyl)ureido)ethylamino)-2-hydropropoxy)benzofuran-2-carboxylate] | −6.50 | −5.27 |  |  | 
NC(=O)c1cc2cc(OCC(O)CNCCNC(=O)Nc3cccc(Cl)c3)ccc2o1 (stereo not shown) [Example 24b, 5-(3-(2-(3-(3-chlorophenyl)ureido)ethylamino)-2-hydropropoxy)benzofuran-2-carboxamide] |  |  | 501 | 6460 | 
O=C(NCCNCC(O)C1COc2ccccc2O1)Nc1cccc(Cl)c1 (stereo not shown) [Example 46a, 1-(3-chlorophenyl)-3-(2-(2-(2,3-dihydrobenzo[b][1,4]dioxin-2-yl)-2-hydroxyethylamino)ethyl)urea] |  |  | 3.98 | 57.5 | 141
O=C(NCCNCC(O)C1Cc2cc(OCCOC3CCCC3)ccc2O1)Nc1ccc(O)cc1 (stereo not shown) [Example 63a, 1-(2-(2-(5-(2-(cyclopentyloxy)ethoxy)-2,3-dihydrobenzofuran-2-yl)-2-hydroxyethylamino)ethyl)-3-(4-hydroxyphenyl)urea] |  |  | 537 | 26900 | 
O=C(NCCNCC(O)c1cc2cc(OCCOC3CCCC3)ccc2o1)Nc1ccc(O)cc1 (stereo not shown) [Example 63b, 1-(2-(2-(5-(2-(cyclopentyloxy)ethoxy)benzofuran-2-yl)-2-hydroxyethylamino)ethyl)-3-(4-hydroxyphenyl)urea] |  |  | 155 | 44700 | 
Cc1ccc2cc(C(O)CNCCNC(=O)Nc3ccc(O)cc3)oc2c1 (stereo not shown) [Example 63c] |  |  | 46.8 | 525 | 152.5
COc1ccc2oc(C(O)CNCCNC(=O)Nc3ccc(O)cc3)cc2c1 (stereo not shown) [Example 63d] |  |  | 224 | 3160 | 151
CCOCc1cc2cc(OCC(O)CNCCNC(=O)Nc3ccc(O)cc3)ccc2o1 (stereo not shown) [Example 610a, 1-(2-(3-(2-(Ethoxymethyl)benzofuran-5-yloxy)-2-hydroxypropylamino)ethyl)-3-(4-hydroxyphenyl)urea] |  |  | 257 | 10200 | 131.5
CCOCC1Cc2cc(OCC(O)CNCCNC(=O)Nc3ccc(O)cc3)ccc2O1 (stereo not shown) [Example 610b] | −6.78 | −4.79 |  |  | 
